Reference: patent US11076594B2, “Pyrazolone compound or salt thereof, preparation method therefor, herbicide composition and use thereof” (QINGDAO KINGAGROOT CHEMICAL COMPOUNDS CO., LTD., priority 2015, dated 2021)

What was measured:
Type in all cases: in vivo
Details in all cases: post-emergence spray at 4-5 leaf stage, 250 g/ha active ingredient with 450 kg/ha water, rated after 3 weeks in greenhouse
wheat = experiment: post-emergence stage experiment, crop (Table 1)
How it was run: (§1)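 Post-emergence spray: compounds dissolved in acetone, Tween 80 added, diluted with water, applied to plants at 4-5 leaf stage. Plants kept 3 wk in greenhouse; activity scored as fresh-weight control rate.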

corn = experiment: post-emergence stage experiment, crop (Table 1)
How it was run: as §1

rice = experiment: post-emergence stage experiment, crop (Table 1); parameters: key: Level 10: completely dead; Level 9: above 95% growth control rate; Level 8: above 90% growth control rate; Level 7: above 80% growth control rate; Level 6: above 70% growth control rate; Level 5: above 60% growth control rate; Level 4: above 50% growth control rate; Level 3: above 20% growth control rate; Level 2: 5%-20% growth control rate; Level 1: below 5% growth control rate
How it was run: as §1

echinochloa = experiment: weed control effect in post-emergence stage (Table 1); parameters: key: Level 10: completely dead; Level 9: above 95% growth control rate; Level 8: above 90% growth control rate; Level 7: above 80% growth control rate; Level 6: above 70% growth control rate; Level 5: above 60% growth control rate; Level 4: above 50% growth control rate; Level 3: above 20% growth control rate; Level 2: 5%-20% growth control rate; Level 1: below 5% growth control rate
How it was run: as §1

crab grass = experiment: as above; parameters: key: Level 10: completely dead; Level 9: above 95% growth control rate; Level 8: above 90% growth control rate; Level 7: above 80% growth control rate; Level 6: above 70% growth control rate; Level 5: above 60% growth control rate; Level 4: above 50% growth control rate; Level 3: above 20% growth control rate; Level 2: 5%-20% growth control rate; Level 1: below 5% growth control rate
How it was run: as §1

bidens bipinnata = experiment: as above; parameters: key: Level 10: completely dead; Level 9: above 95% growth control rate; Level 8: above 90% growth control rate; Level 7: above 80% growth control rate; Level 6: above 70% growth control rate; Level 5: above 60% growth control rate; Level 4: above 50% growth control rate; Level 3: above 20% growth control rate; Level 2: 5%-20% growth control rate; Level 1: below 5% growth control rate
How it was run: as §1

Indian mallow = experiment: as above; parameters: key: Level 10: completely dead; Level 9: above 95% growth control rate; Level 8: above 90% growth control rate; Level 7: above 80% growth control rate; Level 6: above 70% growth control rate; Level 5: above 60% growth control rate; Level 4: above 50% growth control rate; Level 3: above 20% growth control rate; Level 2: 5%-20% growth control rate; Level 1: below 5% growth control rate
How it was run: as §1

rorippa indica = experiment: as above; parameters: key: Level 10: completely dead; Level 9: above 95% growth control rate; Level 8: above 90% growth control rate; Level 7: above 80% growth control rate; Level 6: above 70% growth control rate; Level 5: above 60% growth control rate; Level 4: above 50% growth control rate; Level 3: above 20% growth control rate; Level 2: 5%-20% growth control rate; Level 1: below 5% growth control rate
How it was run: as §1

foxtail = experiment: as above; parameters: key: Level 10: completely dead; Level 9: above 95% growth control rate; Level 8: above 90% growth control rate; Level 7: above 80% growth control rate; Level 6: above 70% growth control rate; Level 5: above 60% growth control rate; Level 4: above 50% growth control rate; Level 3: above 20% growth control rate; Level 2: 5%-20% growth control rate; Level 1: below 5% growth control rate
How it was run: as §1

| Compound | effect on crop, Wheat (level) (wheat) | effect on crop, Corn (level) (corn) | effect on crop, Rice (level) (rice) | weed control effect, Echinochloa (level) (echinochloa) | weed control effect, Crab grass (level) (crab grass) | weed control effect, Bidens bipinnata (level) (bidens bipinnata) | weed control effect, Indian mallow (level) (Indian mallow) | weed control effect, Rorippa indica (level) (rorippa indica) | weed control effect, Green foxtail (level) (foxtail) |
| --- | --- | --- | --- | --- | --- | --- | --- | --- | --- |
| CCc1nn(CC)c(O)c1C(=O)c1ccc(C(F)(F)F)c(N2CCCCCC2=O)c1Cl [Compound 122] | 1 (Level 1: below 5% growth control rate) | 0 | 5 (Level 5: above 60% growth control rate) | 9 (Level 9: above 95% growth control rate) | 3 (Level 3: above 20% growth control rate) | 5 (Level 5: above 60% growth control rate) | 5 (Level 5: above 60% growth control rate) | 0 | 10 |
| CCc1nn(CC)c(OC(=O)c2cn(C)nc2C)c1C(=O)c1ccc(C(F)(F)F)c(N2CCCCCC2=O)c1Cl [Compound 123] | 1 (Level 1: below 5% growth control rate) | 4 (Level 4: above 50% growth control rate) | 7 (Level 7: above 80% growth control rate) | 10 | 3 (Level 3: above 20% growth control rate) | 7 (Level 7: above 80% growth control rate) | 10 | 3 (Level 3: above 20% growth control rate) | 6 (Level 6: above 70% growth control rate) |
| CCn1nc(C2CC2)c(C(=O)c2ccc(C(F)(F)F)c(N3CCCCCC3=O)c2Cl)c1OC(=O)c1cn(C)nc1C [Compound 125] | 2 (Level 2: 5%-20% growth control rate) | 5 (Level 5: above 60% growth control rate) | 10 | 8 (Level 8: above 90% growth control rate) | 10 | 10 | 10 | 4 (Level 4: above 50% growth control rate) | 10 |
| CCn1ncc(C(=O)c2ccc(C(F)(F)F)c(-n3cccn3)c2Cl)c1OC(=O)c1cn(C)nc1C [Compound 127] | 1 (Level 1: below 5% growth control rate) | 1 (Level 1: below 5% growth control rate) | 7 (Level 7: above 80% growth control rate) | 10 | 3 (Level 3: above 20% growth control rate) | 10 | 10 | 10 | 10 |
| CCc1nn(C)c(O)c1C(=O)c1ccc(C(F)(F)F)c(-n2cccn2)c1Cl [Compound 130] | 2 (Level 2: 5%-20% growth control rate) | 4 (Level 4: above 50% growth control rate) | 7 (Level 7: above 80% growth control rate) | 10 | 3 (Level 3: above 20% growth control rate) | 3 (Level 3: above 20% growth control rate) | 0 | 10 | 10 |
| CCc1nn(CC)c(O)c1C(=O)c1ccc(C(F)(F)F)c(-n2cccn2)c1Cl [Compound 132] | 1 (Level 1: below 5% growth control rate) | 0 | 5 (Level 5: above 60% growth control rate) | 9 (Level 9: above 95% growth control rate) | 3 (Level 3: above 20% growth control rate) | 5 (Level 5: above 60% growth control rate) | 5 (Level 5: above 60% growth control rate) | 0 | 10 |
| CCc1nn(CC)c(OC(=O)c2cn(C)nc2C)c1C(=O)c1ccc(C(F)(F)F)c(-n2cccn2)c1Cl [Compound 133] | 2 (Level 2: 5%-20% growth control rate) | 4 (Level 4: above 50% growth control rate) | 8 (Level 8: above 90% growth control rate) | 10 | 2 (Level 2: 5%-20% growth control rate) | 8 (Level 8: above 90% growth control rate) | 10 | 4 (Level 4: above 50% growth control rate) | 8 (Level 8: above 90% growth control rate) |
| CCn1ncc(C(=O)c2ccc(C(F)(F)F)c(-n3cc(C)cn3)c2Cl)c1O [Compound 136] | 1 (Level 1: below 5% growth control rate) | 1 (Level 1: below 5% growth control rate) | 10 | 10 | 7 (Level 7: above 80% growth control rate) | 10 | 10 | 10 | 10 |
| CCn1ncc(C(=O)c2ccc(C(F)(F)F)c(-n3cc(C)cn3)c2Cl)c1OC(=O)c1cn(C)nc1C [Compound 137] | 3 (Level 3: above 20% growth control rate) | 5 (Level 5: above 60% growth control rate) | 8 (Level 8: above 90% growth control rate) | 10 | 7 (Level 7: above 80% growth control rate) | 10 | 10 | 8 (Level 8: above 90% growth control rate) | 10 |
| CCn1nc(C)c(C(=O)c2ccc(C(F)(F)F)c(-n3cc(C)cn3)c2Cl)c1OC(=O)c1cn(C)nc1C [Compound 139] | 2 (Level 2: 5%-20% growth control rate) | 4 (Level 4: above 50% growth control rate) | 9 (Level 9: above 95% growth control rate) | 10 | 8 (Level 8: above 90% growth control rate) | 5 (Level 5: above 60% growth control rate) | 3 (Level 3: above 20% growth control rate) | 10 | 10 |
| CCc1nn(CC)c(O)c1C(=O)c1ccc(C(F)(F)F)c(-n2cc(C)cn2)c1Cl [Compound 142] | 2 (Level 2: 5%-20% growth control rate) | 3 (Level 3: above 20% growth control rate) | 7 (Level 7: above 80% growth control rate) | 10 | 2 (Level 2: 5%-20% growth control rate) | 5 (Level 5: above 60% growth control rate) | 5 (Level 5: above 60% growth control rate) | 3 (Level 3: above 20% growth control rate) | 6 (Level 6: above 70% growth control rate) |
| CCn1nc(C2CC2)c(C(=O)c2ccc(C(F)(F)F)c(-n3cc(C)cn3)c2Cl)c1O [Compound 144] | 0 | 0 | 8 (Level 8: above 90% growth control rate) | 10 | 2 (Level 2: 5%-20% growth control rate) | 10 | 10 | 2 (Level 2: 5%-20% growth control rate) | 9 (Level 9: above 95% growth control rate) |
